The target in this assay is T1, TPM3-TRKA fusion protein (Homo sapiens, UniProt P04629).
T1 construct: The resulted chimeric proteins always retain the kinase domain of TRK proteins; TPM3 (fusion partner, N-terminal part of tropomyosin alpha-3, P06753); endogenous in cells; host or cells: KM12 colon cancer cells; the other entry of the earlier key: TPM3 (P06753, Tropomyosin alpha-3 chain)
Put plainly: TPM3-TRKA fusion protein levels in KM12 cells (Western blot). The settings on record: for percent degradation of TPM3-TRKA protein at 0.01 µM: 16 h, TPM3-TRKA degradation in KM12 cells at 10 nM compound, category of percentage degradation, read-out: Degradation (at 10 nM). Type of assay: cell-based. In a few lines: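 KM12 colon cancer cells were treated with DMSO or compounds at 0.1–100 nM, 0.4–30 nM or other stated concentrations for 4, 8–16 or 16 h. RIPA lysates were BCA-normalized and resolved by SDS-PAGE. TPM3-TRKA was detected by chemiluminescent Western blot, with bands quantified by densitometry.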
For orientation: A western blot detects proteins with antibodies after separation by electrophoresis.

T1 sequence (P04629 with tags, fused parts or gaps): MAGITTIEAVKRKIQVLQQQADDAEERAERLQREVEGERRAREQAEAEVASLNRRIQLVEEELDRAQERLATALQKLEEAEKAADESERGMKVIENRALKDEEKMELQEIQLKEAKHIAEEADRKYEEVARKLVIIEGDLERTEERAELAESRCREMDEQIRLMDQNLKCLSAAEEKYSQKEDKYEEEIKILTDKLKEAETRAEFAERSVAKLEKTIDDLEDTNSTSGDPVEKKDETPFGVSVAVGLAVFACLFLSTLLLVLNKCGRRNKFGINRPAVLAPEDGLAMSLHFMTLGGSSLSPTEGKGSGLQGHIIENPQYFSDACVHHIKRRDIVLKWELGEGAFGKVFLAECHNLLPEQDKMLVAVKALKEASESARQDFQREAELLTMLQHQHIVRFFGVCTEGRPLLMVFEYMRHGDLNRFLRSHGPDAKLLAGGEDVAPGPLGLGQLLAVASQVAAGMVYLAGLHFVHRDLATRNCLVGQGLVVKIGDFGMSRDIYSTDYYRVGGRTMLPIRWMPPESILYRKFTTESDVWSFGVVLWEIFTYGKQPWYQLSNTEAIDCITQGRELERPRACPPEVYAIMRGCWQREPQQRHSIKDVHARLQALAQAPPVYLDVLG

As for `Cc1ncsc1-c1ccc(CNC(=O)[C@@H]2C[C@@H](O)CN2C(=O)[C@@H](NC(=O)COCCOCCOCC(=O)N2CCN(c3ccc(C(=O)Nc4n[nH]c5ccc(Cc6cc(F)cc(F)c6)cc45)c(NC4CCOCC4)c3)CC2)C(C)(C)C)cc1` [CPD-058, (25,4R)-1-((S)-2-(tert-butyl)-14-(4-(4-((5-(3,5-Difluorobenzyl)-1H-indazol-3-yl)carbamoyl)-3-((tetrahydro-2H-pyran-4-yl)amino)phenyl)piperazin-1-yl)-4,14-dioxo-6,9,12-trioxa-3-azatetradecanoyl)-4-hydroxy-N-(4-(4-methylthiazol-5-yl)benzyl)pyrrolidine-2-carboxamide], the percent degradation of TPM3-TRKA protein at 0.01 µM was < 50%.

For the molecule `O=C(CN1CCN(c2cccc(-c3cnc4ccc(N5CCC[C@@H]5c5cccc(F)c5)nn34)n2)CC1)NCCOCCOCCOCCNc1cccc2c1C(=O)N(C1CCC(=O)NC1=O)C2=O` (stereo partly drawn) [CPD-059, N-(2-(2-(2-(2-((2-(2,6-Dioxopiperidin-3-yl)-1,3-dioxoisoindolin-4-yl)amino)ethoxy)ethoxy)ethoxy)ethyl)-2-(4-(6-(6-((R)-2-(3-fluorophenyl)pyrrolidin-1-yl)imidazo[1,2-b]pyridazin-3-yl)pyridin-2-yl)piperazin-1-yl)acetamide], the percent degradation of TPM3-TRKA protein at 0.01 µM is > 80%.

Turning to `O=C(CN1CCN(c2cccc(-c3cnc4ccc(N5CCC[C@@H]5c5cccc(F)c5)nn34)n2)CC1)NCCNc1cccc2c1C(=O)N(C1CCC(=O)NC1=O)C2=O` (stereo partly drawn) [CPD-060, N-(2-((2˜ (2,6-Dioxopiperidin-3-yl)-1,3-dioxoisoindolin-4-yl)amino)ethyl)-2-(4-(6-(6-((R)-2-(3-fluorophenyl)pyrrolidin-1-yl)imidazo[1,2-b]pyridazin-3-yl)pyridin-2-yl)piperazin-1-yl)acetamide], the percent degradation of TPM3-TRKA protein at 0.01 µM is > 80%. For the same molecule, the TPM3-TRKA protein levels result (KM12 cells, 100 nM, indicated incubation time, Western blot (FIG. 2)) was “rapidly reduced TPM3-TRKA protein levels”.

Turning to `Cc1ncsc1-c1ccc(CNC(=O)[C@@H]2C[C@@H](O)CN2C(=O)[C@@H](NC(=O)CCCCCCCNC(=O)CN2CCN(c3ccc(C(=O)Nc4n[nH]c5ccc(Cc6cc(F)cc(F)c6)cc45)c(NC4CCOCC4)c3)CC2)C(C)(C)C)cc1` [CPD-061, (2S,4R)-1-((S)-2-(8-(2-(4-(4-((5-(3,5-Difluorobenzyl)-1H-indazol-3-yl)carbamoyl)-3-((tetrahydro-2H-pyran-4-yl)amino)phenyl)piperazin-1-yl)acetamido)octanamido)-3,3-dimethylbutanoyl)-4-hydroxy-N-(4-(4-methylthiazol-5-yl)benzyl)pyrrolidine-2-carboxamide], the percent degradation of TPM3-TRKA protein at 0.01 µM is < 50%.

As for `O=C(CN1CCN(c2ccc(C(=O)Nc3n[nH]c4ccc(Cc5cc(F)cc(F)c5)cc34)c(NC3CCOCC3)c2)CC1)NCCNc1cccc2c1C(=O)N(C1CCC(=O)NC1=O)C2=O` (stereo not drawn) [CPD-062, N-(5-(3,5-Difluorobenzyl)-1H-indazol-3-yl)-4-(4-(2-((2-((2-(2,6-dioxopiperidin-3-yl)-1,3-dioxoisoindolin-4-yl)amino)ethyl)amino)-2-oxoethyl)piperazin-1-yl)-2-((tetrahydro-2H-pyran-4-yl)amino)benzamide], the percent degradation of TPM3-TRKA protein at 0.01 µM is > 80%.

In the case of `O=C(CN1CCN(c2ccc(C(=O)Nc3n[nH]c4ccc(Cc5cc(F)cc(F)c5)cc34)c(NC3CCOCC3)c2)CC1)NCCOCCOCCOCCNc1cccc2c1C(=O)N(C1CCC(=O)NC1=O)C2=O` (stereo not drawn) [CPD-064, N—(S-(3,5-Difluorobenzyl)-1H-indazol-3-yl)-4-(4-(14-((2-(2,6-dioxopiperidin-3-yl)-1,3-dioxoisoindolin-4-yl)amino)-2-oxo-6,9,12-trioxa-3-azatetradecyl)piperazin-1-yl)-2-((tetrahydro-2H-pyran-4-yl)amino)benzamide], the percent degradation of TPM3-TRKA protein at 0.01 µM is > 80%.

In the case of `O=C(CN1CCN(c2ccc(C(=O)Nc3n[nH]c4ccc(Cc5cc(F)cc(F)c5)cc34)c(NC3CCOCC3)c2)CC1)NCCOCCOCCOCCOCCOCCNc1cccc2c1C(=O)N(C1CCC(=O)NC1=O)C2=O` (stereo not drawn) [CPD-065, N-(5-(3,5-Difluorobenzyl)-1H-indazol-3-yl)-4-(4-(20-((2-(2,6-dioxopiperidin-3-yl)-1,3-dioxoisoindolin-4-yl)amino)-2-oxo-6,9,12,15,18-pentaoxa-3-azaicosyl)piperazin-1-yl)-2-((tetrahydro-2H-pyran-4-yl)amino)benzamide], the percent degradation of TPM3-TRKA protein at 0.01 µM is > 80%.

`O=C(CN1CCN(c2cccc(-c3cnc4ccc(N5CCC[C@@H]5c5cccc(F)c5)nn34)n2)CC1)NCCOCCOCCOCCOCCOCCNc1cccc2c1C(=O)N(C1CCC(=O)NC1=O)C2=O` (stereo partly drawn) [TR-104, N-(17-((2-(2,6-dioxopiperidin-3-yl)-1,3-dioxoisoindolin-4-yl)amino)-3,6,9,12,15-pentaoxaheptadecyl)-2-(4-(6-(6-((R)-2-(3-fluorophenyl)pyrrolidin-1-yl)imidazo[1,2-b]pyridazin-3-yl)pyridin-2-yl)piperazin-1-yl)acetamide]: the percent degradation of TPM3-TRKA protein at 0.01 µM was > 80%.

For the molecule `O=C(CN1CCN(c2cccc(-c3cnc4ccc(N5CCC[C@@H]5c5cccc(F)c5)nn34)n2)CC1)NCCOCCOCCNc1cccc2c1C(=O)N(C1CCC(=O)NC1=O)C2=O` (stereo partly drawn) [TR-105, N-(2-(2-(2-((2-(2,6-dioxopiperidin-3-yl)-1,3-dioxoisoindolin-4-yl)amino)ethoxy)ethoxy)ethyl)-2-(4-(6-(6-((R)-2-(3-fluorophenyl)pyrrolidin-1-yl)imidazo[1,2-b]pyridazin-3-yl)pyridin-2-yl)piperazin-1-yl)acetamide], the percent degradation of TPM3-TRKA protein at 0.01 µM is > 80%.

Take `O=C(CN1CCN(c2cccc(-c3cnc4ccc(N5CCC[C@@H]5c5cccc(F)c5)nn34)n2)CC1)NCCCCNc1cccc2c1C(=O)N(C1CCC(=O)NC1=O)C2=O` (stereo partly drawn) [TR-107, N-(4-((2-(2,6-dioxopiperidin-3-yl)-1,3-dioxoisoindolin-4-yl)amino)butyl)-2-(4-(6-(6-((R)-2-(3-fluorophenyl)pyrrolidin-1-yl)imidazo[1,2-b]pyridazin-3-yl)pyridin-2-yl)piperazin-1-yl)acetamide]: the percent degradation of TPM3-TRKA protein at 0.01 µM was > 80%.

With `O=C(CN1CCN(c2cccc(-c3cnc4ccc(N5CCC[C@@H]5c5cccc(F)c5)nn34)n2)CC1)NCCOCCOCCOCCOCCNc1cccc2c1C(=O)N(C1CCC(=O)NC1=O)C2=O` (stereo partly drawn) [TR-108, N-(14-((2-(2,6-dioxopiperidin-3-yl)-1,3-dioxoisoindolin-4-yl)amino)-3,6,9,12-tetraoxatetradecyl)-2-(4-(6-(6-((R)-2-(3-fluorophenyl)pyrrolidin-1-yl)imidazo[1,2-b]pyridazin-3-yl)pyridin-2-yl)piperazin-1-yl)acetamide], the percent degradation of TPM3-TRKA protein at 0.01 µM is > 80%.

For `O=C(CN1CCN(c2cccc(-c3cnc4ccc(N5CCC[C@@H]5c5cccc(F)c5)nn34)n2)CC1)NCCCNc1cccc2c1C(=O)N(C1CCC(=O)NC1=O)C2=O` (stereo partly drawn) [TR-109, N-(3-((2-(2,6-dioxopiperidin-3-yl)-1,3-dioxoisoindolin-4-yl)amino)propyl)-2-(4-(6-(6-((R)-2-(3-fluorophenyl)pyrrolidin-1-yl)imidazo[1,2-b]pyridazin-3-yl)pyridin-2-yl)piperazin-1-yl)acetamide], the percent degradation of TPM3-TRKA protein at 0.01 µM was > 80%.

`O=C1CCC(N2C(=O)c3ccc(NCCOCCOCCC(=O)N4CCN(c5cccc(-c6cnc7ccc(N8CCC[C@@H]8c8cccc(F)c8)nn67)n5)CC4)cc3C2=O)C(=O)N1` (stereo partly drawn) [TR-113, 2-(2,6-Dioxopiperidin-3-yl)-5-((2-(2-(3-(4-(6-(6-((R)-2˜ (3-fluorophenyl)pyrrolidin-1-yl)imidazo[1,2-b]pyridazin-3-yl)pyridin-2-yl)piperazin-1-yl)-3-oxopropoxy)ethoxy)ethyl)amino) isoindoline-1,3-dione]: the percent degradation of TPM3-TRKA protein at 0.01 µM was > 80%.

As for `O=C1CCC(N2C(=O)c3ccc(NCCOCCOCCOCCOCCOCCC(=O)N4CCN(c5cccc(-c6cnc7ccc(N8CCC[C@@H]8c8cccc(F)c8)nn67)n5)CC4)cc3C2=O)C(=O)N1` (stereo partly drawn) [TR-116], the percent degradation of TPM3-TRKA protein at 0.01 µM was > 80%.

On to `O=C1CCC(N2C(=O)c3ccc(NCCCCCCC(=O)N4CCN(c5cccc(-c6cnc7ccc(N8CCC[C@@H]8c8cccc(F)c8)nn67)n5)CC4)cc3C2=O)C(=O)N1` (stereo partly drawn) [TR-117, 2-(2,6-Dioxopiperidin-3-yl)-5-((7-(4-(6-(6-((R)-2-(3-fluorophenyl)pyrrolidin-1-yl)imidazo[1,2-b]pyridazin-3-yl)pyridin-2-yl)piperazin-1-yl)-7-oxoheptyl)amino) isoindoline-1,3-dione], for which the percent degradation of TPM3-TRKA protein at 0.01 µM was > 80%.

On to `O=C1CCC(N2C(=O)c3ccc(NCCCCCCCC(=O)N4CCN(c5cccc(-c6cnc7ccc(N8CCC[C@@H]8c8cccc(F)c8)nn67)n5)CC4)cc3C2=O)C(=O)N1` (stereo partly drawn) [TR-118, 2-(2,6-Dioxopiperidin-3-yl)-5-((8-(4-(6-(6-((R)-2-(3-fluorophenyl)pyrrolidin-1-yl)imidazo[1,2-b]pyridazin-3-yl)pyridin-2-yl)piperazin-1-yl)-8-oxooctyl)amino) isoindoline-1,3-dione], for which the percent degradation of TPM3-TRKA protein at 0.01 µM is > 80%.

For `O=C1CCC(N2C(=O)c3ccc(NCCOCCC(=O)N4CCN(c5cccc(-c6cnc7ccc(N8CCC[C@@H]8c8cccc(F)c8)nn67)n5)CC4)cc3C2=O)C(=O)N1` (stereo partly drawn) [TR-119, 2-(2,6-Dioxopiperidin-3-yl)-5-((2-(3-(4-(6-(6-((R)-2-(3-fluorophenyl)pyrrolidin-1-yl)imidazo[1,2-b]pyridazin-3-yl)pyridin-2-yl)piperazin-1-yl)-3-oxopropoxy)ethyl)amino) isoindoline-1,3-dione], the percent degradation of TPM3-TRKA protein at 0.01 µM was > 80%.
